Results reported in patent US10807951B2, “mTORC1 modulators” (THE REGENTS OF THE UNIVERSITY OF CALIFORNIA, priority 2017, dated 2020).

Key:
[1] = biological target: LAMTOR5 (Homo sapiens, UniProt O43504); experiment: Rhodamine labeling with alkyne probe on purified Lamtor-Rag complexes; assay type: binding; conditions: preliminary experiments
From the text: (§1) FIGS. 8A-8B. (FIG. 8A) Structures of CC 2-11 and CC 1-44. CC 2-11 bears an alkyne group on a separate ring from the cysteine-reactive warhead. The presence of the alkyne group enables us to directly label the modified target protein (e.g. Lamtor5) with biotin or rhodamine groups, either in gels or in complex proteomes. […] Thus, CC 2-11 allows precise mapping of the target cysteines as well as accurate identification of the off-targets.
as §1, with “We also synthesized a” for “FIGS. 8A-8B. (FIG. 8A) Structures of”, “1-44 derivative, named” for “2-11 and”, “2-11, which” for “1-44. CC 2-11”, “warhead (FIG. 8A).” for “warhead.”, “will allow” for “allows”

[2] = in vivo; cited from earlier work

In the case of `C#Cc1cc(COc2cccc3c2ccn3C(=O)C=C)cc(C(F)(F)F)c1` [CC 2-11], the “direct rhodamine labeling of target protein by alkyne probe” value [1] was “enables rhodamine labeling of a 28 KDa band corresponding to Lamtor5”.
For `CO[C@H]1C[C@@H]2CC[C@@H](C)[C@@](O)(O2)C(=O)C(=O)N2CCCC[C@H]2C(=O)O[C@H]([C@H](C)C[C@@H]2CC[C@@H](O)[C@H](OC)C2)CC(=O)[C@H](C)/C=C(\C)[C@@H](O)[C@@H](OC)C(=O)[C@H](C)C[C@H](C)/C=C/C=C/C=C/1C` [rapamycin], the bioavailability [2] is listed as “good”.
